Measured values: ChEMBL document CHEMBL5226342, “Novel Reversible-Binding PET Ligands for Imaging Monoacylglycerol Lipase Based on the Piperazinyl Azetidine Scaffold” (J Med Chem, 2021)

Key:
[1] = Drug uptake in iv dosed rhesus monkey striatum pretreated with MAGL inhibitor, […] PET imaging based analysis; assay type: ADME, organism-based, Macaca mulatta; settings: in vivo
[2] = Drug uptake in iv dosed rhesus monkey cerebellum measured after 60 mins by PET imaging based analysis; assay type: ADME, organism-based, Macaca mulatta; settings: in vivo, 1 h
[3] = Drug uptake in iv dosed rhesus monkey cerebellum pretreated with MAGL inhibitor, […] PET imaging based analysis; assay type: ADME, organism-based, Macaca mulatta; settings: in vivo
[4] = Drug uptake in iv dosed CD-1 mouse pancreas measured after 60 mins by Ex vivo whole body biodistribution based analysis; assay type: ADME, organism-based; settings: 1 h
[5] = Metabolic stability of the compound in iv dosed Sprague-Dawley rat brain assessed as parent compound remaining measured after 30 mins by radio-HPLC analysis; assay type: ADME, organism-based; settings: read-out: Stability
[6] = Drug uptake in iv dosed CD-1 mouse kidney measured after 60 mins by Ex vivo whole body biodistribution based analysis; assay type: ADME, organism-based; settings: 1 h
[7] = Drug uptake in iv dosed rhesus monkey hippocampus by PET imaging based analysis; assay type: ADME, organism-based, Macaca mulatta; settings: in vivo
[8] = Drug uptake in iv dosed Sprague-Dawley rat hippocampus measured for 90 mins by PET imaging based analysis; assay type: ADME, organism-based; settings: in vivo, 1.5 h
[9] = Drug uptake in iv dosed rhesus monkey hippocampus measured after 60 mins by PET imaging based analysis; assay type: ADME, organism-based, Macaca mulatta; settings: in vivo, 1 h
[10] = Drug uptake in iv dosed CD-1 mouse lung measured after 60 mins by Ex vivo whole body biodistribution based analysis; assay type: ADME, organism-based; settings: 1 h
[11] = Drug uptake in mouse brain treated with MAGL inhibitor, JNJ-42226314 at 15 mins post-drug administration by PET imaging based analysis; assay type: ADME, tissue-based; settings: in vivo, 0.25 h
[12] = Drug uptake in iv dosed CD-1 mouse liver measured after 60 mins by Ex vivo whole body biodistribution based analysis; assay type: ADME, organism-based; settings: 1 h
[13] = Drug uptake in iv dosed rhesus monkey striatum measured after 60 mins by PET imaging based analysis; assay type: ADME, organism-based, Macaca mulatta; settings: in vivo, 1 h
[14] = Drug uptake in iv dosed rhesus monkey pons by PET imaging based analysis; assay type: ADME, organism-based, Macaca mulatta; settings: in vivo
[15] = Drug uptake in iv dosed rhesus monkey hippocampus pretreated with MAGL inhibitor, […] PET imaging based analysis; assay type: ADME, organism-based, Macaca mulatta; settings: in vivo
[16] = Metabolic stability of the compound in iv dosed Sprague-Dawley rat brain assessed as parent compound remaining measured after 60 mins by radio-HPLC analysis; assay type: ADME, organism-based; settings: read-out: Stability
[17] = Metabolic stability of the compound in iv dosed Sprague-Dawley rat plasma assessed as parent compound remaining measured after 30 mins by radio-HPLC analysis; assay type: ADME, organism-based; settings: read-out: Stability
[18] = Drug uptake in iv dosed rhesus monkey striatum by PET imaging based analysis; assay type: ADME, organism-based, Macaca mulatta; settings: in vivo
[19] = Drug uptake in iv dosed Sprague-Dawley rat cerebellum measured for 90 mins by PET imaging based analysis; assay type: ADME, organism-based; settings: in vivo, 1.5 h
[20] = Drug uptake in iv dosed rhesus monkey cortex by PET imaging based analysis; assay type: ADME, organism-based, Macaca mulatta; settings: in vivo
[21] = Drug uptake in iv dosed rhesus monkey pons measured after 60 mins by PET imaging based analysis; assay type: ADME, organism-based, Macaca mulatta; settings: in vivo, 1 h
[22] = Drug uptake in iv dosed Sprague-Dawley rat pons measured for 90 mins by PET imaging based analysis; assay type: ADME, organism-based; settings: in vivo, 1.5 h
[23] = Drug uptake in iv dosed Sprague-Dawley rat striatum measured for 90 mins by PET imaging based analysis; assay type: ADME, organism-based; settings: in vivo, 1.5 h
[24] = Drug uptake in iv dosed CD-1 mouse small intestine measured after 60 mins by Ex vivo whole body biodistribution based analysis; assay type: ADME, organism-based; settings: 1 h
[25] = Metabolic stability of the compound in iv dosed Sprague-Dawley rat plasma assessed as parent compound remaining measured after 60 mins by radio-HPLC analysis; assay type: ADME, organism-based; settings: read-out: Stability
[26] = Drug uptake in iv dosed rhesus monkey cortex pretreated with MAGL inhibitor, […] PET imaging based analysis; assay type: ADME, organism-based, Macaca mulatta; settings: in vivo
[27] = Drug uptake in iv dosed rhesus monkey brain by PET imaging based analysis; assay type: ADME, organism-based, Macaca mulatta; settings: in vivo
[28] = Drug uptake in iv dosed rhesus monkey cerebellum by PET imaging based analysis; assay type: ADME, organism-based, Macaca mulatta; settings: in vivo
[29] = Drug uptake in iv dosed CD-1 mouse heart measured after 60 mins by Ex vivo whole body biodistribution based analysis; assay type: ADME, organism-based; settings: 1 h
[30] = Drug uptake in iv dosed Sprague-Dawley rat cerebral cortex measured for 90 mins by PET imaging based analysis; assay type: ADME, organism-based; settings: in vivo, 1.5 h
[31] = Drug uptake in iv dosed rhesus monkey cortex measured after 60 mins by PET imaging based analysis; assay type: ADME, organism-based, Macaca mulatta; settings: in vivo, 1 h

SMILES: O=C(c1ccc2c(ccn2-c2ccc([18F])cc2)c1)N1CC(N2CCN(c3ncccn3)CC2)C1
- Drug uptake [1]: Not Active
- Drug uptake [2]: Active
- Drug uptake [3]: Not Active
- Drug uptake [4]: Not Active
- remaining at 0.5 h [5]: 95%
- Drug uptake [6]: Not Active
- Drug uptake [7]: Active
- Drug uptake [8]: Active
- Drug uptake [9]: Active
- Drug uptake [10]: Not Active
- Drug uptake [11]: Not Active
- Drug uptake [12]: Active
- Drug uptake [13]: Active
- Drug uptake [14]: Active
- Drug uptake [15]: Not Active
- remaining at 1 h [16]: 98%
- remaining at 0.5 h [17]: 53%
- Drug uptake [18]: Active
- Drug uptake [19]: Active
- Drug uptake [20]: Active
- Drug uptake [21]: Not Active
- Drug uptake [22]: Active
- Drug uptake [23]: Active
- Drug uptake [24]: Active
- remaining at 1 h [25]: 40%
- Drug uptake [26]: Not Active
- SUVmax [27]: 1.2
- Drug uptake [28]: Active
- Drug uptake [29]: Not Active
- SUVmax [30]: 1.4
- Drug uptake [31]: Active
